According to patent US20100062492A1, “Method For Preparing Icariside II, Cosmetic Composition Containing The Same and the Use Thereof For Skin Whitening” (Amorepacific Corporation, priority 2006, published 2010):

Experiments:
[1] = tested on: alpha-glucosidase (Sigma); assay: Test of alpha-glucosidase inhibitory effect; type: biochemical; conditions: 0.01 ml of 10 mg/ml sample; 50 U/ml alpha-glucosidase; 5 mM p-nitrophenyl-α-D-glucopyranoside, 37° C., 5 minutes; absorbance at 405 nm; untreated group = 100.0
Protocol: In this regard, the deoxynojirimycin was used as a positive control group. Each of the samples was measured for absorbance at 405 nm to determine initial absorbance, and 0.05 ml of 5 mM p-nitrophenyl-α-D-glucopyranoside as a substrate was added thereto and subjected to an enzymatic reaction at 37° C. for 5 minutes. Then, each sample was measured for absorbance at 405 nm, and the enzyme activity inhibition thereof was calculated according to Math Figure 1. Alpha-glucosidase activity inhibition (%)=100−(absorbance of each test sample/absorbance of control group×100) [Math Figure 1]

[2] = tested on: tyrosinase in human melanoma cell HM3KO cells; assay: Effect on glycosylation of human melanoma cell tyrosinase (endoglycosidase H digestion, electrophoresis, immunodetection); type: cell-based; conditions: HM3KO cells cultured to confluency with 0.05% sample; about 72 kD = normally glycosylated, about 60 kD = glycosylation inhibited
Protocol: In order to examine the effect of icariside II on the glycosylation of tyrosinase in human melanoma cells, the following test was carried out. First, human melanoma cell HM3KO cells (Y. Funasaka, Department of dermatology, Kobe university school of medicine, 5-1 Kusunoki-cho 7-chrome, Chuo-ku, Kobe 650, Japan) were cultured in a minimum essential medium (MEM), containing 10% bovine fetal serum, under conditions of 37° C. and 5% CO2. The cultured cells were placed in 75 cm^2 flasks at a cell density of 3×10^5 cells and left to stand overnight, such that the cells adhered to the flask wall. From the next day, the medium was replaced with a fresh medium, containing each of icariin icariside II of Example 1 and deoxynojirimycin in an amount of 0.05%. Herein, the deoxynojirimycin was used as a positive control group. The medium was replaced with a fresh medium containing each of the samples at a 1-2-day interval, and the cells were cultured to confluency in the flasks. When the cells reached confluency, the cells were collected, added to lysis buffer (2% CHAPS in 50 mM Hepes and 200 mM NaCl, pH 7.5, protease inhibitors) and ultrasonically disrupted. The disrupted cell solution was centrifuged at 4° C. and 12000 rpm for 10 minutes, unbroken cells and melanin were separated and removed, and only the supernatant was collected. Endoglycosidase H (125 units) was added to the supernatant (protein amount: […]), and the supernatant was subjected to an enzymatic reaction at 37° C. for 1 hour. Then, proteins in the supernatant were separated according to size by electrophoresis. Among the proteins separated by electrophoresis, tyrosinase could be observed by an immune reaction with an antibody. […]

human skin = assay: Test of whitening effect on human skin after UVB-induced blackness; type: in vivo; conditions: 1% solution in 1,3-butyleneglycol:ethanol=7:3 applied to UVB-irradiated upper arm of 12 healthy men, 10 weeks; ΔL* higher than about 1.5 = whitening effect
From the text: First, a perforated opaque tape having a diameter of 1.5 cm was attached to the upper arm of each of 12 healthy men. Then, UV rays (UVB) were irradiated to each of the subjects at a dose 1.5-2 times higher than the minimal erythema dose of each subject, thus inducing skin's blackness.
After the UV irradiation, each of a 1% solution of icariside (1,3-butyleneglycol:ethanol=7:3, as a vehicle), prepared in Example 1, a 1% solution of hydroquinone, a 1% solution of vehicle (negative control group), was applied to the skin of each subject. […] The skin color was measured with a colorimeter (Minolta, Japan) at a 1-week interval.
ΔL*=L* value at time point of completion of application−L* value at time point of start of application [Math Figure 2]

| SMILES | Activity inhibition (%) [1] [%] | size of tyrosinase after endoglycosidase H treatment (FIG. 1) [2] | Lightless (ΔL*) of skin color (human skin) |
| --- | --- | --- | --- |
| OC[C@H]1NC[C@H](O)[C@@H](O)[C@@H]1O [Deoxynojirimycin, deoxynojirimycin, reference compound] | 41.1 | about 60 kD | – |
| COc1ccc(-c2oc3c(CC=C(C)C)c(O)cc(O)c3c(=O)c2O[C@@H]2O[C@H](C)[C@@H](O)[C@H](O)[C@@H]2O)cc1 [Example 1, icariside II] | 38.2 | about 60 kD | 1.97 ± 0.25 |
| COc1ccc(-c2oc3c(CC=C(C)C)c(O)cc(O)c3c(=O)c2O[C@@H]2O[C@H](C)[C@@H](O)[C@H](O)[C@@H]2O)cc1 [Example 2, icariside II] | 38.8 | – | – |
| COc1ccc(-c2oc3c(CC=C(C)C)c(O)cc(O)c3c(=O)c2O[C@@H]2O[C@H](C)[C@@H](O)[C@H](O)[C@@H]2O)cc1 [Example 3, icariside II] | 37.5 | – | – |
| COc1ccc(-c2oc3c(CC=C(C)C)c(O)cc(O)c3c(=O)c2O[C@@H]2O[C@H](C)[C@@H](O)[C@H](O)[C@@H]2O)cc1 [Example 4, icariside II] | 37.9 | – | – |
| COc1ccc(-c2oc3c(CC=C(C)C)c(O)cc(O)c3c(=O)c2O[C@@H]2O[C@H](C)[C@@H](O)[C@H](O)[C@@H]2O)cc1 [Example 5, icariside II] | 37.8 | – | – |
| Oc1ccc(O)cc1 [Hydroquinone, hydroquinone, reference compound] | – | – | 1.90 ± 0.11 |
| COc1ccc(-c2oc3c(CC=C(C)C)c(O[C@@H]4O[C@H](CO)[C@@H](O)[C@H](O)[C@H]4O)cc(O)c3c(=O)c2O[C@@H]2O[C@@H](C)[C@H](O)[C@@H](O)[C@H]2O)cc1 [Icariin, icariin, reference compound] | 98.8 | about 72 kD | – |
